How the values were obtained:
[1] = test system: rats; assay: Rat sleep/EEG studies; type: in vivo; details: central administration at the onset of the normal sleep period
From the text: Therefore antagonists of its receptor may be useful in the treatment of sleep disorders including insomnia.

[2] = test system: freely-feeding rats; details: central administration, 4 hour time period; cited from earlier work

orexin-A: peptide ligand (agonist) of the orexin-1 receptor; amino acid sequence given in the 1st table (QPLPDCCRQKTCSCRLYELLHGAGNHAAGILTL; Orexin-A; UniProt O43612 34-66, looked up)
arousal [1]: dose-related increase in arousal
paradoxical sleep and slow wave sleep 2 [1]: reduction in paradoxical sleep and slow wave sleep 2
increase in food intake over control rats receiving vehicle [2]: approximately four-fold

Source: patent publication US6506774B1, “Use of orexin receptor antagonists” (SmithKline Beecham p.l.c., priority 1999, dated 2003)
